According to the NIST ThermoML archive (doi:10.1016/j.jct.2016.02.001):

Assay: mn = molality of the nth substance listed, in mol/kg
Settings: for surface tension liquid-gas: Maximal bubble pressure; for mass density: 100 kPa, Liquid, Vibrating tube method

CC(=O)[O-].CCCCCCn1cc[n+](C)c1 [3-hexyl-1-methylimidazolium acetate] + O
Settings	mass density [kg/m3]	surface tension liquid-gas [mN/m]
288.15 K, m1 = 0.0117	1000.09	73
288.15 K, m1 = 0.0162	1000.19	72.9
288.15 K, m1 = 0.0285	1000.4	72.7
288.15 K, m1 = 0.044	1000.58	72.2
288.15 K, m1 = 0.1102	1001.44	70.4
288.15 K, m1 = 0.1674	1002.13	68.9
288.15 K, m1 = 0.2233	1002.92	67.6
288.15 K, m1 = 0.2797	1003.61	66.3
288.15 K, m1 = 0.3357	1004.39	65.1
288.15 K, m1 = 0.3914	1005.11	63.7
288.15 K, m1 = 0.4475	1005.8	62.4
288.15 K, m1 = 0.5029	1006.52	61.4
293.15 K, m1 = 0.0117	999.03	72.3
293.15 K, m1 = 0.0162	999.15	72.2
293.15 K, m1 = 0.0285	999.32	71.9
293.15 K, m1 = 0.044	999.53	71.3
293.15 K, m1 = 0.1102	1000.29	69.6
293.15 K, m1 = 0.1674	1000.95	68.2
293.15 K, m1 = 0.2233	1001.64	67
293.15 K, m1 = 0.2797	1002.33	65.6
293.15 K, m1 = 0.3357	1003	64.4
293.15 K, m1 = 0.3914	1003.71	63
293.15 K, m1 = 0.4475	1004.46	61.7
293.15 K, m1 = 0.5029	1005.19	60.7
298.15 K, m1 = 0.0117	997.74	71.6
298.15 K, m1 = 0.0162	997.89	71.4
298.15 K, m1 = 0.0285	998.01	71.1
298.15 K, m1 = 0.044	998.25	70.6
298.15 K, m1 = 0.1102	998.91	69
298.15 K, m1 = 0.1674	999.59	67.5
298.15 K, m1 = 0.2233	1000.3	66.2
298.15 K, m1 = 0.2797	1001	64.8
298.15 K, m1 = 0.3357	1001.66	63.7
298.15 K, m1 = 0.3914	1002.34	62.4
298.15 K, m1 = 0.4475	1003.01	61.1
298.15 K, m1 = 0.5029	1003.64	60.2
303.15 K, m1 = 0.0117	996.24	70.7
303.15 K, m1 = 0.0162	996.35	70.6
303.15 K, m1 = 0.0285	996.49	70.3
303.15 K, m1 = 0.044	996.69	69.7
303.15 K, m1 = 0.1102	997.44	68.1
303.15 K, m1 = 0.1674	998.06	66.8
303.15 K, m1 = 0.2233	998.79	65.6
303.15 K, m1 = 0.2797	999.48	64.1
303.15 K, m1 = 0.3357	1000.14	62.9
303.15 K, m1 = 0.3914	1000.78	61.7
303.15 K, m1 = 0.4475	1001.42	60.5
303.15 K, m1 = 0.5029	1002.04	59.6
308.15 K, m1 = 0.0117	994.58	69.8
308.15 K, m1 = 0.0162	994.69	69.7
308.15 K, m1 = 0.0285	994.81	69.4
308.15 K, m1 = 0.044	994.99	68.9
308.15 K, m1 = 0.1102	995.81	67.5
308.15 K, m1 = 0.1674	996.43	65.9
308.15 K, m1 = 0.2233	997.08	64.7
308.15 K, m1 = 0.2797	997.72	63.4
308.15 K, m1 = 0.3357	998.39	62.2
308.15 K, m1 = 0.3914	999.02	61.1
308.15 K, m1 = 0.4475	999.65	59.9
308.15 K, m1 = 0.5029	1000.24	58.9
313.15 K, m1 = 0.0117	992.75	69
313.15 K, m1 = 0.0162	992.83	68.9
313.15 K, m1 = 0.0285	992.94	68.7
313.15 K, m1 = 0.044	993.11	68.2
313.15 K, m1 = 0.1102	993.86	66.6
313.15 K, m1 = 0.1674	994.56	65.3
313.15 K, m1 = 0.2233	995.21	64.1
313.15 K, m1 = 0.2797	995.84	62.8
313.15 K, m1 = 0.3357	996.49	61.7
313.15 K, m1 = 0.3914	997.12	60.5
313.15 K, m1 = 0.4475	997.73	59.2
313.15 K, m1 = 0.5029	998.32	58.2
318.15 K, m1 = 0.0117	990.75	68.2
318.15 K, m1 = 0.0162	990.81	68.1
318.15 K, m1 = 0.0285	990.95	67.9
318.15 K, m1 = 0.044	991.1	67.4
318.15 K, m1 = 0.1102	991.84	65.8
318.15 K, m1 = 0.1674	992.43	64.4
318.15 K, m1 = 0.2233	993.11	63.3
318.15 K, m1 = 0.2797	993.76	62.1
318.15 K, m1 = 0.3357	994.39	61
318.15 K, m1 = 0.3914	995	59.7
318.15 K, m1 = 0.4475	995.59	58.5
318.15 K, m1 = 0.5029	996.16	57.7
